Assay results reported in PubChem BioAssay AID330 (DTP/NCI, 2004).
Inconclusive results and toxic doses are left out. Rule for the calls: active = survival T/C of 150% or more; inactive = T/C below 125% in these data.

Test system: P388 leukemia ip, CD2F1 mice, survival T/C
Assay: NCI In Vivo Anticancer Drug Screen. Data for tumor model P388 Leukemia (intraperitoneal) in CD2F1 (CDF1) mice
Conditions: endpoint: median survival time, higher = longer survival
How it was run: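 Mice carrying the transplanted tumor received test compound or vehicle. Survival was recorded in each group, and the value is the treated-group measurement divided by that of the vehicle-treated control group.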

[1] = dose: 50.0 mg/kg/injection, schedule: Q01DX005 (ip), vehicle: saline
[2] = dose: 100.0 mg/kg/injection, schedule: Q01DX005 (ip), vehicle: saline
[3] = dose: 200.0 mg/kg/injection, schedule: Q01DX005 (ip), vehicle: saline
[4] = dose: 60.0 mg/kg/injection, schedule: Q01DX005 (ip), vehicle: saline with Tween-80
[5] = dose: 120.0 mg/kg/injection, schedule: Q01DX005 (ip), vehicle: saline with Tween-80
[6] = dose: 240.0 mg/kg/injection, schedule: Q01DX005 (ip), vehicle: saline with Tween-80
[7] = dose: 50.0 mg/kg/injection, schedule: Q01DX005 (ip), vehicle: saline with Tween-80
[8] = dose: 100.0 mg/kg/injection, schedule: Q01DX005 (ip), vehicle: saline with Tween-80
[9] = dose: 200.0 mg/kg/injection, schedule: Q01DX005 (ip), vehicle: saline with Tween-80
[10] = dose: 50.0 mg/kg/injection, schedule: Q01DX005 (ip), vehicle: Klucel (hydroxypropylcellulose) (HPC)
[11] = dose: 100.0 mg/kg/injection, schedule: Q01DX005 (ip), vehicle: Klucel (hydroxypropylcellulose) (HPC)
[12] = dose: 200.0 mg/kg/injection, schedule: Q01DX005 (ip), vehicle: Klucel (hydroxypropylcellulose) (HPC)
[13] = dose: 12.5 mg/kg/injection, schedule: Q01DX009 (ip), vehicle: saline with Tween-80
[14] = dose: 25.0 mg/kg/injection, schedule: Q01DX009 (ip), vehicle: saline with Tween-80
[15] = dose: 100.0 mg/kg/injection, schedule: Q04DX003 (ip), vehicle: saline
[16] = dose: 200.0 mg/kg/injection, schedule: Q04DX003 (ip), vehicle: saline
[17] = dose: 400.0 mg/kg/injection, schedule: Q04DX003 (ip), vehicle: saline

Measured: T/C

CC1CCCC(C2CCCCCCC2O)N1 (centres undefined)
inactive: [1] 100 % of control | [2] 92 % of control | [3] 97 % of control

O=C(Nc1cccc(Cl)c1)Oc1cccnc1
inactive: [4] 99 % of control | [5] 88 % of control | [6] 89 % of control

CC12CC3CC(C)(C1)CC(SC(=N)N)(C3)C2
inactive: dose: 7.5 mg/kg/injection, schedule: Q01DX005 (ip), vehicle: saline with Tween-80 105 % of control | dose: 15.0 mg/kg/injection, schedule: Q01DX005 (ip), vehicle: saline with Tween-80 104 % of control | dose: 30.0 mg/kg/injection, schedule: Q01DX005 (ip), vehicle: saline with Tween-80 106 % of control

CCCCCC1(C2CCCCO2)NC(=O)NC1=O (centres undefined)
inactive: [7] 97 % of control | [8] 99 % of control | [9] 91 % of control

O=C(OC1C(O)OC2COC(=O)c3cc(O)c(O)c(O)c3-c3c(cc(O)c(O)c3O)C(=O)OC2C1O)c1cc(O)c(O)c(O)c1 (centres undefined)
inactive: dose: 3.75 mg/kg/injection, schedule: Q01DX009 (ip), vehicle: saline with Tween-80 97 % of control | dose: 7.5 mg/kg/injection, schedule: Q01DX009 (ip), vehicle: saline with Tween-80 102 % of control | dose: 15.0 mg/kg/injection, schedule: Q01DX009 (ip), vehicle: saline with Tween-80 103 % of control

Nc1ccc(C2C(=[N+]([O-])[O-])C=C([N+](=O)[O-])c3[nH]o[n+](=O)c32)cc1 (centres undefined)
inactive: dose: 50.0 mg/kg/injection, schedule: Q01DX001 (ip), vehicle: saline with Tween-80 100 % of control | dose: 100.0 mg/kg/injection, schedule: Q01DX001 (ip), vehicle: saline with Tween-80 100 % of control

Nc1ncnc2nc(-c3ccc(C[P+](c4ccccc4)(c4ccccc4)c4ccccc4)cc3)[nH]c12
inactive: [4] 95 % of control | [5] 95 % of control | [6] 95 % of control

CCOC(=O)C1C(C(=O)c2ccc(Br)cc2)C12C(=O)N(C)c1ccccc12 (centres undefined)
inactive: dose: 12.5 mg/kg/injection, schedule: Q04DX002 (ip), vehicle: saline with Tween-80 99 % of control | dose: 25.0 mg/kg/injection, schedule: Q04DX002 (ip), vehicle: saline with Tween-80 92 % of control | dose: 50.0 mg/kg/injection, schedule: Q04DX002 (ip), vehicle: saline with Tween-80 93 % of control

COC(=O)C1=C(C(=O)OC)C(=Nc2ccccc2)c2ccccc2C1=O
inactive: dose: 100.0 mg/kg/injection, schedule: Q04DX002 (ip), vehicle: Klucel (hydroxypropylcellulose) (HPC) 100 % of control | dose: 200.0 mg/kg/injection, schedule: Q04DX002 (ip), vehicle: Klucel (hydroxypropylcellulose) (HPC) 100 % of control | dose: 400.0 mg/kg/injection, schedule: Q04DX002 (ip), vehicle: Klucel (hydroxypropylcellulose) (HPC) 110 % of control

O=C(Nc1cc(Cl)c([N+](=O)[O-])cc1O)c1ccco1
inactive: dose: 50.0 mg/kg/injection, schedule: Q01DX009 (ip), vehicle: Klucel (hydroxypropylcellulose) (HPC) 106 % of control | dose: 100.0 mg/kg/injection, schedule: Q01DX009 (ip), vehicle: Klucel (hydroxypropylcellulose) (HPC) 99 % of control | dose: 200.0 mg/kg/injection, schedule: Q01DX009 (ip), vehicle: Klucel (hydroxypropylcellulose) (HPC) 98 % of control

Cc1ccc(S(=O)(=O)OCC(OS(=O)(=O)c2ccc(C)cc2)C2OC3OC(C)(C)OC3C2O)cc1 (centres undefined)
inactive: [7] 103 % of control | [8] 97 % of control | [9] 96 % of control

O=C1c2ccccc2C(=O)c2c(NCCSCCO)ccc(NCCSCCO)c21
inactive: dose: 16.0 mg/kg/injection, schedule: Q01DX009 (ip), vehicle: Klucel (hydroxypropylcellulose) (HPC) 92 % of control | dose: 32.0 mg/kg/injection, schedule: Q01DX009 (ip), vehicle: Klucel (hydroxypropylcellulose) (HPC) 96 % of control | dose: 64.0 mg/kg/injection, schedule: Q01DX009 (ip), vehicle: Klucel (hydroxypropylcellulose) (HPC) 89 % of control | dose: 128.0 mg/kg/injection, schedule: Q01DX009 (ip), vehicle: Klucel (hydroxypropylcellulose) (HPC) 86 % of control

OCCOCCN1CCN(CCCN2c3ccccc3Sc3ccc(C(F)(F)F)cc32)CC1
inactive: dose: 12.5 mg/kg/injection, schedule: Q04DX003 (ip), vehicle: saline 114 % of control | dose: 25.0 mg/kg/injection, schedule: Q04DX003 (ip), vehicle: saline 117 % of control

Cc1nc2c(cnn2C)c(=O)n1-c1cccc(Cl)c1
inactive: [10] 98 % of control | [11] 100 % of control | [12] 87 % of control

C=CCN(CC=C)P1(=O)NCCCO1 (centres undefined)
inactive: [1] 103 % of control | [2] 102 % of control | [3] 105 % of control

C/C=C/C(C#N)OC(C)=O (centres undefined)
inactive: dose: 3.75 mg/kg/injection, schedule: Q01DX005 (ip), vehicle: saline 100 % of control | dose: 7.5 mg/kg/injection, schedule: Q01DX005 (ip), vehicle: saline 100 % of control

Cc1cc(/C=C\c2ccc3ccccc3[n+]2C)c(O)c2ncccc12
inactive: [13] 114 % of control | [14] 106 % of control

C=CCn1c(C)nc2c(cnn2C)c1=O
inactive: [10] 101 % of control | [11] 110 % of control | [12] 104 % of control

O=C1CSC(c2ccc([N+](=O)[O-])cc2[N+](=O)[O-])N1c1nncs1 (centres undefined)
inactive: [7] 95 % of control | [8] 95 % of control | [9] 95 % of control

CCOC(=O)C1CC(=O)C1C(=O)OCC (centres undefined)
inactive: [13] 104 % of control | [14] 103 % of control | dose: 50.0 mg/kg/injection, schedule: Q01DX009 (ip), vehicle: saline with Tween-80 100 % of control | dose: 100.0 mg/kg/injection, schedule: Q01DX009 (ip), vehicle: saline with Tween-80 100 % of control | dose: 200.0 mg/kg/injection, schedule: Q01DX009 (ip), vehicle: saline with Tween-80 101 % of control

CC1=NS(=O)(=O)NC(C)=C1CC1=C(C)NS(=O)(=O)N=C1C
inactive: [4] 99 % of control | [5] 107 % of control | [6] 106 % of control

COc1ccc2c(c1OC)C1NCCc3cc4c(cc3C1(OC)C2=O)OCO4 (centres undefined)
inactive: dose: 25.0 mg/kg/injection, schedule: Q01DX005 (ip), vehicle: distilled water + Tween-80 + alcohol 109 % of control | dose: 50.0 mg/kg/injection, schedule: Q01DX005 (ip), vehicle: distilled water + Tween-80 + alcohol 104 % of control | dose: 100.0 mg/kg/injection, schedule: Q01DX005 (ip), vehicle: distilled water + Tween-80 + alcohol 107 % of control | dose: 200.0 mg/kg/injection, schedule: Q01DX005 (ip), vehicle: distilled water + Tween-80 + alcohol 103 % of control

CN1N=Nc2ccccc2NC1=O
inactive: [7] 96 % of control | [8] 99 % of control | [9] 91 % of control

CN1C(=C2C=CC(=NS(=O)(=O)c3ccc(Cl)cc3)C=C2)Sc2ccccc21
inactive: [15] 105 % of control | [16] 106 % of control | [17] 100 % of control

COc1cc(CCc2cc(OC)c(OC)c(OC)c2)cc(OC)c1OC
inactive: dose: 31.25 mg/kg/injection, schedule: Q01DX009 (ip), vehicle: saline + Tween-80 + alcohol 98 % of control | dose: 62.5 mg/kg/injection, schedule: Q01DX009 (ip), vehicle: saline + Tween-80 + alcohol 91 % of control | dose: 125.0 mg/kg/injection, schedule: Q01DX009 (ip), vehicle: saline + Tween-80 + alcohol 102 % of control | dose: 250.0 mg/kg/injection, schedule: Q01DX009 (ip), vehicle: saline + Tween-80 + alcohol 87 % of control

OC1COCC2N3C(=NN12)Sc1ccccc13 (centres undefined)
inactive: [15] 105 % of control | [16] 107 % of control | [17] 98 % of control

Cc1ccc(S(=O)(=O)C(C#N)(CCC(=O)/C=C/c2ccccc2)CCC(=O)/C=C/c2ccccc2)cc1
inactive: [10] 99 % of control | [11] 92 % of control | [12] 92 % of control

O=C(OCCCCCl)c1ccccc1
inactive: dose: 50.0 mg/kg/injection, schedule: Q01DX009 (ip), vehicle: saline + Tween-80 + alcohol 104 % of control | dose: 100.0 mg/kg/injection, schedule: Q01DX009 (ip), vehicle: saline + Tween-80 + alcohol 104 % of control | dose: 200.0 mg/kg/injection, schedule: Q01DX009 (ip), vehicle: saline + Tween-80 + alcohol 110 % of control | dose: 400.0 mg/kg/injection, schedule: Q01DX009 (ip), vehicle: saline + Tween-80 + alcohol 112 % of control

CCN(CC)CCCC(C)Nc1cc(-c2ccccc2)nc2cc(Cl)ccc12 (centres undefined)
inactive: [1] 106 % of control | [2] 112 % of control | [3] 116 % of control
